Experimental data taken from ChEMBL document CHEMBL5120876, “Design, synthesis and biological evaluation of novel indole derivatives as gut-selective NaPi2b inhibitors” (Bioorg Med Chem, 2022).
In brackets after ≈: the same amount, converted by molar mass. Activity calls are given as the source filed them. The calls are words filed in the database; no cut-off is given here.

How the values were obtained:
[1] = target: T1, Sodium-dependent phosphate transport protein 2B (Homo sapiens, UniProt O95436); assay: Inhibition of human NaPi2b expressed in CHO-K1 cells assessed as reduction in [33P] uptake preincubated with compound for 30 mins followed by [33P]O4 addition and measured after 30 mins by TopCount liquid scintillation counting method; format: cell-based
T1 sequence (O95436 whole entry): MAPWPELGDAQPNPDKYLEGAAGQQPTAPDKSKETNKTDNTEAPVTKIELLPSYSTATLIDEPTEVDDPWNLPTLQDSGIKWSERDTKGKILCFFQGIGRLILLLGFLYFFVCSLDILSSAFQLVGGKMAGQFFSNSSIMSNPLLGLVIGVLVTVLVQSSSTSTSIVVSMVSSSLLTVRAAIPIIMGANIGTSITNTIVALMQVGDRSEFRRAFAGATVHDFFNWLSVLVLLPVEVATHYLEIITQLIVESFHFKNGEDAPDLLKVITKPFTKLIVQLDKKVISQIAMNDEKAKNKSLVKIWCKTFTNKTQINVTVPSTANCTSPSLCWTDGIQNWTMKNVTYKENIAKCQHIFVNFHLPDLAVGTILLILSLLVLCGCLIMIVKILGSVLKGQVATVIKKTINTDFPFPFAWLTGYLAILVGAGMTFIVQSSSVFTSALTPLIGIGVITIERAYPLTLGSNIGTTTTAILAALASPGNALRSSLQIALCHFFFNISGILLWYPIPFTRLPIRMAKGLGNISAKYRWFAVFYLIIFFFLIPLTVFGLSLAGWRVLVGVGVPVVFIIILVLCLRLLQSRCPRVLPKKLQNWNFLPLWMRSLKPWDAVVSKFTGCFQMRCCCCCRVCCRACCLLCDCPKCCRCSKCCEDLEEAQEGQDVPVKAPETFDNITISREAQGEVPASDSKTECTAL

[2] = target: T2, Sodium-dependent phosphate transport protein 2B (Rattus norvegicus, UniProt Q9JJ09); assay: Inhibition of rat NaPi2b expressed in CHO-K1 cells assessed as reduction in [33P] uptake preincubated with compound for 30 mins followed by [33P]O4 addition and measured after 10 mins by TopCount liquid scintillation counting method; format: cell-based
T2 sequence (Q9JJ09 whole entry): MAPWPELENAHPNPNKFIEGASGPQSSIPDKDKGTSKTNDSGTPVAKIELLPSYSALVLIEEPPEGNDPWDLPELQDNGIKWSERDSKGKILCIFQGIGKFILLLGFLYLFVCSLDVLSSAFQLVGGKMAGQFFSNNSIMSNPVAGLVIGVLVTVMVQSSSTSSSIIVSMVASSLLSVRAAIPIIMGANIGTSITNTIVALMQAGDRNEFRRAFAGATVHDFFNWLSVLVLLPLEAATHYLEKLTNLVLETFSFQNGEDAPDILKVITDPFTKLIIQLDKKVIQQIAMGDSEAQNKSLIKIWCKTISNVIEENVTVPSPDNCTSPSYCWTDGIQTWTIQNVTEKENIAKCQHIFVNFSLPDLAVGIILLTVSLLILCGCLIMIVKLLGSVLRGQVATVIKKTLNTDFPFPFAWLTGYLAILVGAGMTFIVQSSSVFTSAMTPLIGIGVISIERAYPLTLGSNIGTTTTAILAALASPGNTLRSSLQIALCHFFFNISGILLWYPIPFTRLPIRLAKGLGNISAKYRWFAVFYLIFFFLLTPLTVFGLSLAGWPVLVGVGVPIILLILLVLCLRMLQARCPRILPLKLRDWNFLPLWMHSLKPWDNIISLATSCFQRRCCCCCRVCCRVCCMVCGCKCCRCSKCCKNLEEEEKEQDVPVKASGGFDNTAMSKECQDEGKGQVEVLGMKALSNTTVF

[3] = AUC (0 to t) in Sprague-Dawley rat at 1 mg/kg, iv administered as single dose by LC-MS analysis; format: ADME, organism-based; design: dose 1 mg/kg, route iv; settings: in vivo
[4] = Cmax in Sprague-Dawley rat at 10 mg/kg, po administered as single dose by LC-MS analysis; format: ADME, organism-based; design: dose 10 mg/kg, route po; settings: in vivo
[5] = AUC (0 to t) in Sprague-Dawley rat at 10 mg/kg, po administered as single dose by LC-MS analysis; format: ADME, organism-based; design: dose 10 mg/kg, route po; settings: in vivo
[6] = Oral bioavailability in Sprague-Dawley rat at 10 mg/kg administered as single dose by LC-MS analysis; format: ADME, organism-based; settings: in vivo
[7] = Drug excretion in Sprague-Dawley rat feces assessed as cumulative amount of unchanged drug excreted at 10 mg/kg, po administered as single dose and measured within 24 hrs by LC-MS analysis; format: ADME, organism-based; settings: faeces, read-out: Ae
[8] = Solubility of the compound in fasted state simulated intestinal fluid at pH 6.5 incubated for 24 hrs by HPLC analysis; format: physicochemical
[9] = Solubility of the compound in fed state simulated intestinal fluid at pH 5.0 incubated for 24 hrs by HPLC analysis; format: physicochemical
[10] = Drug concentration in Sprague-Dawley rat intestine at 10 mg/kg, po administered as single dose; format: ADME, organism-based; settings: in vivo
[11] = target: T3, Sodium-dependent phosphate transport protein 2B (Homo sapiens) (UniProt O95436); assay: Inhibition of human NaPi2b at 1 uM relative to control
T3 sequence (whole entry): T1 sequence (O95436 whole entry)

[12] = target: T1, Sodium-dependent phosphate transport protein 2B; assay: Inhibition of NaPi2b (unknown origin)
[13] = AUC (0 to t) in Sprague-Dawley rat at 1.17 mg/kg, iv administered as single dose by LC-MS analysis; format: ADME, organism-based; design: dose 1.17 mg/kg, route iv; settings: in vivo
[14] = test system: Rattus norvegicus; assay: In vivo inhibition of NaPi2b in Sprague-Dawley rat assessed as reduction in phosphate absorption at 10 mg/kg, po preincubated for 5 mins followed by addition of NaH2PO4 containing 32P-phosphate solution and measured after 15 to 30 mins by liquid scintillation counting method; format: functional, organism-based; settings: time 20.0 min

Q: For `CCC(CC)N(CCN(C)C(=O)CCC(=O)O)Cc1cccc(C(=O)Nc2[nH]c3ccccc3c2C(=O)Nc2ccccc2)c1`, which IC50 [1] is on record?
A: 538 nM

Q: For `CCC(CC)N(CCN(C)C(=O)CNS(=O)(=O)c1c[nH]c(C(N)=O)c1)Cc1cccc(C(=O)Nc2[nH]c3ccccc3c2C(=O)Nc2ccc(CCCc3ccc(C(=O)O)cc3)cc2)c1`, which IC50 [1] is on record?
A: 401 nM

Q: Which IC50 [1] does the source give for `CCC(CC)N(CCN(C)C(=O)CCC(=O)NCCOCCOCCOCCC(=O)O)Cc1cccc(C(=O)Nc2[nH]c3ccccc3c2C(=O)Nc2ccc(CCCc3ccc(C(=O)O)cc3)cc2)c1` here?
A: 535 nM

Q: With `CCCC(CCC)N(CCN(C)C(=O)CCC(=O)O)Cc1cccc(C(=O)Nc2[nH]c3ccccc3c2C(=O)Nc2ccc(CCCc3ccc(C(=O)O)cc3)cc2)c1` as the compound, how does the IC50 [1] read?
A: 78 nM

Q: For `CC(C)N(CCN(C)C(=O)CCC(=O)O)Cc1cccc(C(=O)Nc2[nH]c3ccccc3c2C(=O)Nc2ccc(CCCc3ccc(C(=O)O)cc3)cc2)c1`, which IC50 [1] is on record?
A: 356 nM

Q: For `CCC(CC)N(CCN(C)C(=O)CCC(=O)O)Cc1cccc(C(=O)Nc2[nH]c3ccccc3c2C(=O)Nc2ccc(CCCc3ccc(C(=O)O)cc3)cc2)c1`, which IC50 [1] is on record?
A: 71 nM

Q: What about the IC50 [2] of the same compound?
A: 28 nM

Q: And the AUC(0-t) [3]?
A: 834 ng·h/mL

Q: What about the Cmax [4] of the same compound?
A: 568 ng/mL

Q: What about the AUC(0-t) [5] of the same compound?
A: 1090 ng·h/mL

Q: What about the bioavailability [6] of the same compound?
A: 13.1%

Q: And the dose excreted at 24 h [7]?
A: 68.1%

Q: What about the solubility at 24 h [8] of the same compound?
A: 103 µg/mL (≈ 133 µM)

Q: What about the solubility at 24 h [9] of the same compound?
A: 264 µg/mL (≈ 341 µM)

Q: And the Ct [10]?
A: 39 µg/mL

Q: With `CCC(CC)N(CCN(C)C(=O)CCC(=O)O)Cc1cccc(C(=O)Nc2[nH]c3ccccc3c2C(=O)Nc2ccc(Cc3ccc(C(=O)O)cc3)cc2)c1` as the compound, how does the IC50 [1] read?
A: 448 nM

Q: For `CCC(CC)N(CCN(C)C(=O)CN1C(=O)NC2NC(=O)NC21)Cc1cccc(C(=O)Nc2[nH]c3ccccc3c2C(=O)Nc2ccc(CCCc3ccc(C(=O)O)cc3)cc2)c1` (stereo not given), which IC50 [1] is on record?
A: 401 nM

Q: With `CCC(CC)N(CCN(C)C(=O)NCC(=O)O)Cc1cccc(C(=O)Nc2[nH]c3ccccc3c2C(=O)Nc2ccc(CCCc3ccc(C(=O)O)cc3)cc2)c1` as the compound, how does the IC50 [1] read?
A: 369 nM

Q: Which IC50 [1] does the source give for `CCC(CC)N(CCN(C)S(=O)(=O)NC(=O)OCC(=O)O)Cc1cccc(C(=O)Nc2[nH]c3ccccc3c2C(=O)Nc2ccc(CCCc3ccc(C(=O)O)cc3)cc2)c1` here?
A: 267 nM

Q: For `CN(Cc1cccc(C(=O)Nc2[nH]c3ccccc3c2C(=O)Nc2ccc(CCCc3ccc(C(=O)O)cc3)cc2)c1)C1CCN(C(=O)CCC(=O)O)C1` (stereo not given), which IC50 [1] is on record?
A: 2580 nM

Q: With `CCC(CC)N(CCN(C)C(=O)CCC(=O)O)Cc1cccc(C(=O)Nc2sc3c(c2C(=O)Nc2ccc(CCc4ccc(C(=O)O)cc4)cc2)CCCC3)c1` as the compound, how does the inhibition [11] read?
A: 87%

Q: For `CCN(CC)c1ccc(NC(=O)c2cccc(CSCCOCCOCCOCCOCCOCCOCCOCCOCCC(=O)O)c2)c(-c2cc(C(=O)NCc3cccc(C(F)(F)F)c3)ccn2)c1`, which IC50 [12] is on record?
A: 1000 nM

Q: With `CN(C(=O)CCC(=O)O)C1CCN(Cc2cccc(C(=O)Nc3[nH]c4ccccc4c3C(=O)Nc3ccc(CCCc4ccc(C(=O)O)cc4)cc3)c2)C1` (stereo not given) as the compound, how does the IC50 [1] read?
A: 1020 nM

Q: For `CCN([C@H]1CC[C@H](C(=O)O)CC1)S(=O)(=O)c1cccc(C(=O)Nc2[nH]c3ccccc3c2C(=O)Nc2ccc(CCCc3ccc(C(=O)O)cc3)cc2)c1`, which IC50 [1] is on record?
A: 257 nM

Q: With `CCC(CC)N(CCN(C)C(=O)CCC(=O)NCCOCCOCCOCCO)Cc1cccc(C(=O)Nc2[nH]c3ccccc3c2C(=O)Nc2ccc(CCCc3ccc(C(=O)O)cc3)cc2)c1` as the compound, how does the IC50 [1] read?
A: 166 nM

Q: What about the IC50 [2] of the same compound?
A: 98 nM

Q: And the AUC(0-t) [13]?
A: 170 ng·h/mL

Q: And the Cmax [4]?
A: 15.5 ng/mL

Q: What about the AUC(0-t) [5] of the same compound?
A: 15.4 ng·h/mL

Q: And the bioavailability [6]?
A: 1.1%

Q: What about the dose excreted at 24 h [7] of the same compound?
A: 58.8%

Q: And the solubility at 24 h [8]?
A: > 482 µg/mL

Q: What about the solubility at 24 h [9] of the same compound?
A: > 479 µg/mL

Q: What about the Ct [10] of the same compound?
A: 34 µg/mL

Q: What about the inhibition [14] of the same compound?
A: Active
